Source: patent US20260207640A1, “Polyphenolic Boronates and Use Thereof” (The Medical College of Wisconsin, Inc., priority 2022, published 2026)
Entries after “also recorded” stand apart in the source; their conditions may differ.

Tests used:
melanoma (UACC-62) cells = assay: IncuCyte cell proliferation, melanoma cells; assay type: cell-based; conditions: dose-dependent
Description: FIGS. 5A-5B show effects of MGN and MGN-B on the proliferation of melanoma cancer (UACC-62) cells. The effects of MGN and MGN-B on the proliferation of UACC-62 cells were monitored in the IncuCyte Live-Cell Analysis system. The IncuCyte analyzer provides real-time updates on cell confluence based on segmentation of high definition-phase contrast images. The IC50 values were determined at the point at which control cells reached ~90% confluence. Relative cell confluence (control is taken as 100%) is plotted against concentration. Dashed lines in FIG. 5B represent the fitting curves used to determine the IC50 values as indicated for MGN and MGN-B. Data shown are the mean±SD.
The U87MG (ATCC Cat #HTB-14, human glioblastoma cancer cells), A549 (ATCC Cat #CCL-185, human lung cancer cells), and MiaPaCa-2 (ATCC Cat #CRL-1420, human pancreatic cancer cells) cell lines were purchased from the American Tissue Culture Collection (Manassas, VA, USA). The UACC-62 melanoma cell line was purchased from AddexBio (San Diego, CA; Cat #C0020003). All cell lines were regularly authenticated. All cell lines were grown at 37° C. in 5% carbon dioxide. The U87MG, A549, and UACC-62 cells were maintained in Roswell Park Memorial Institute Medium 1640 medium (Thermo Fisher Scientific, Waltham, MA, USA; Cat #11875) supplemented with 10% fetal bovine serum. […]

[1] = system: granulocytic-myeloid-derived suppressor cells (G-MDSCs) and regulatory T cells (Tregs); conditions: cited from earlier work
[2] = system: glioblastoma (U87MG) cells; assay: IncuCyte cell proliferation, glioblastoma cells; assay type: cell-based, human; conditions: for antiproliferative effect, boronate versus non-boronated analog: comparison within pair (HNK/HNK-B, Mito-HNK/Mito-HNK-B, MGN/MGN-B, Mito-MGN/Mito-MGN-B)
Description: (§1) FIGS. 2A-2C show effects of HNK and HNK-B on the proliferation of glioblastoma (U87MG), pancreatic cancer (MiaPaCa-2) cells, and lung cancer (A549) cells. The effects of HNK and HNK-B on the proliferation of U87MG (FIG. 2A), MiaPaCa-2 (FIG. 2B), or A549 (FIG. 2C) cells were monitored in the IncuCyte Live-Cell Analysis system. The IncuCyte analyzer provides real-time updates on cell confluence based on segmentation of high definition-phase contrast images. Representative cell images are shown as segmentation masks, illustrated when control cells reached 90% confluence (vertical solid line). The half maximal inhibitory concentration (IC50) values for U87MG (FIG. 2A), MiaPaCa-2 (FIG. 2B), or A549 (FIG. 2C) cells were determined at the point at which control cells reached ~90% confluence (vertical solid line). Relative cell confluence (control is taken as 100%) is plotted against concentration. Dashed lines represent the fitting curves used to determine the IC50 values as indicated. Data shown are the mean±standard deviation (SD).
(§2) The effects of Mito-HNK and Mito-HNK-B on the proliferation of U87MG (FIG. 3A), MiaPaCa-2 (FIG. 3B), or A549 (FIG. 3C) cells were monitored in the IncuCyte Live-Cell Analysis system. The IncuCyte analyzer provides real-time updates on cell confluence based on segmentation of high definition-phase contrast images. Representative cell images are shown as segmentation masks, illustrated when control cells reached 90% confluence (vertical solid line). The IC50 values for U87MG (FIG. 3A), MiaPaCa-2 (FIG. 3B), or A549 (FIG. 3C) cells were determined at the point at which control cells reached ~90% confluence (vertical solid line). Relative cell confluence (control is taken as 100%) is plotted against concentration. Dashed lines represent the fitting curves used to determine the IC50 values as indicated. Data shown are the mean±SD.
FIGS. 4A-4B show effects of Mito-MGN, Mito-MGN-B, MGN, and MGN-B on the proliferation of glioblastoma cancer (U87MG) cells. The effects of Mito-MGN, Mito-MGN-B, MGN, and MGN-B on the proliferation of U87MG cells were monitored in the IncuCyte Live-Cell Analysis system. The IncuCyte analyzer provides real-time updates on cell confluence based on segmentation of high definition-phase contrast images. Representative cell images are shown as segmentation masks, illustrated in black when control cells reached 90% confluence. Full growth curves of Mito-MGN and Mito-MGN-B are shown in panel (FIG. 4A). The IC50 values were determined at the point at which control cells reached ~90% confluence. Relative cell confluence (control is taken as 100%) is plotted against concentration. Dashed lines in FIG. 4B represent the fitting curves used to determine the IC50 values as indicated for Mito-MGN and Mito-MGN-B (left panel) and for MGN and MGN-B (right panel). Data shown are the mean±SD.
The U87MG (ATCC Cat #HTB-14, human glioblastoma cancer cells), A549 (ATCC Cat #CCL-185, human lung cancer cells), and MiaPaCa-2 (ATCC Cat #CRL-1420, human pancreatic cancer cells) cell lines were purchased from the American Tissue Culture Collection (Manassas, VA, USA). The UACC-62 melanoma cell line was purchased from AddexBio (San Diego, CA; Cat #C0020003). All cell lines were regularly authenticated. All cell lines were grown at 37° C. in 5% carbon dioxide. The U87MG, A549, and UACC-62 cells were maintained in Roswell Park Memorial Institute Medium 1640 medium (Thermo Fisher Scientific, Waltham, MA, USA; Cat #11875) supplemented with 10% fetal bovine serum. MiaPaCa-2 cells were maintained in Dulbecco's Modified Eagle Medium (Thermo Fisher Scientific, Waltham, MA, USA; Cat #11965) and supplemented with 10% fetal bovine serum. All cells were stored in liquid nitrogen and used within 20 passages after thawing.
The IncuCyte Live-Cell Analysis System was used to continuously monitor cell proliferation, as described in earlier publications.

[3] = system: pancreatic cancer (MiaPaCa-2) cells; assay: IncuCyte cell proliferation, pancreatic cancer cells; assay type: cell-based, human; conditions: comparison within pair
Description: as §1
as §2, with “mean±SD. […]” for “mean±SD.”

lung cancer (A549) cells = assay: IncuCyte cell proliferation, lung cancer cells; assay type: cell-based, human; conditions: comparison within pair
Description: as §1
as §2, with “mean±SD. […]” for “mean±SD.”

NOX2 = molecular target: T1, NOX2 (Homo sapiens, UniProt P04839); assay: Oxidant formation from NOX2; conditions: preliminary results
T1 sequence (P04839 2-570 limits assumed): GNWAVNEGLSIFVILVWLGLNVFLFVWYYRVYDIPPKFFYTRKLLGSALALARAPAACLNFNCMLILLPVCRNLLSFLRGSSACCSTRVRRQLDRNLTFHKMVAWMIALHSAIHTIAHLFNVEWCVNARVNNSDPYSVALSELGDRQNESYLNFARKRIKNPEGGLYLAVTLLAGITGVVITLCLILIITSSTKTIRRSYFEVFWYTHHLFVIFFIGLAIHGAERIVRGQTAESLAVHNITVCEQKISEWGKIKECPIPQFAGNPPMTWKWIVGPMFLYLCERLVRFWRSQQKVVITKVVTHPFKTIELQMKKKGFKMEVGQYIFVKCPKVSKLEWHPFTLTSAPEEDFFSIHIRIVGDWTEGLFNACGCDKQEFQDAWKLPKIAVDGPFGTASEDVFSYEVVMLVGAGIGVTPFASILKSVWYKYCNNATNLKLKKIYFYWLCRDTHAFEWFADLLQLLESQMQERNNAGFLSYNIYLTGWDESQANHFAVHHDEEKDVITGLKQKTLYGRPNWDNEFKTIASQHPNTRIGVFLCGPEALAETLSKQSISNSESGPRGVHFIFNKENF

lung tumors = conditions: mice xenografts; cited from earlier work
[4] = not told; cited from earlier work
kidney = conditions: in vivo; cited from earlier work
[5] = Oxidation of boronates by H2O2, HPLC; assay type: physicochemical
Description: (§3) All samples were incubated at room temperature in aqueous solution containing phosphate buffer (0.1 M, pH 7.4) and DTPA (10 μM). Absorption traces recorded using UV absorption detection at 260 nm.
(§4) High-performance liquid chromatography (HPLC) analysis was performed using an Agilent 1200 apparatus equipped with ultraviolet-visible spectroscopy absorption and a mass spectrometry detector (single quadrupole).
(§5) In the studies on the reaction profile of ONOO oxidation of Mito-HNK-B and derivatives, 2 μL of sample was injected into the HPLC system equipped with a C18 column (Phenomenex, Kinetex Evo, 100×2.1 mm, 1.7 μm) equilibrated with 5% MeCN containing 0.1% (v/v) formic acid. The compounds were separated by a linear increase in MeCN phase concentration from 5% to 100% over 8 min and until 15 min at 100% MeCN using a flow rate of 0.21 mL/min. The peak areas detected by monitoring the absorption at 260 nm were used for the quantitation.
(§6) The stock solutions of oxidants (HOCl and H2O2) were prepared freshly before each experiment; their concentrations were determined by spectrophotometry by reacting nitrite with H2O2, using the procedure described previously. […] Immediately prior to each experiment, the concentration of ONOO was determined spectrally at 302 nm (ε=1.7× 103 M^−1 cm^−1) after dilution in 0.1 M sodium hydroxide to ~10 mM concentration. […]

[6] = Oxidation of boronates by ONOO−, HPLC; assay type: physicochemical; conditions: in the presence of ONOO−
Description: as §3, §4, §5, §6

[7] = Hydrolysis of pinacolate ester in aqueous phosphate buffer, HPLC; assay type: physicochemical; conditions: upon dilution in aqueous phosphate buffer
Description: Stock solutions of HNK-B, HNK-B^2, and Mito-HNK-B were prepared in dimethyl sulfoxide at a 10 mM concentration and this solution was added directly to the buffer to obtain the desired concentration. […] Thus, the boronic acid species were tested with the oxidants. When studying HNK-B and Mito-HNK-B oxidations by HOCl, stock solutions (10 mM) in MeCN were added to the phosphate buffer (100 mM, pH 7.4) to obtain a final concentration of the probe of 500 μM. Dimethyl sulfoxide solvent was avoided due to known rapid quenching of HOCl by dimethyl sulfoxide.

[8] = system: arginase-1 and NOS-2 (or iNOS); conditions: cited from earlier work

Compound: C=CCc1ccc(O)c(-c2cc(CC=C)ccc2O)c1 [MGN, magnolol]
- effect on proliferation (melanoma (UACC-62) cells): decreasing the proliferation

Compound: O=C1C(OCCCCCCCCCC[P+](c2ccccc2)(c2ccccc2)c2ccccc2)=C(C2CCC(c3ccc(Cl)cc3)CC2)C(=O)c2ccccc21 (stereo not drawn) [Mito-ATO, Mitochondria-targeted atovaquone]
- G-MDSCs and Tregs in the TME ([1]; flow cytometry analysis): significant decreases
- T cell immune responses locally and in distant tumor sites ([1]; intratumoral injection into primary tumors, spontaneous tumor model): triggered potent T cell immune responses

Compound: Mitochondria-targeted magnolol boronate [Mito-MGN-B]
- antiproliferative potency of TPP+ conjugate compared with parent compounds MGN/MGN-B [2]: increased their antiproliferative potencies
- antiproliferative effect, boronate versus non-boronated analog [2]: slightly more potent

Compound: C=CCc1ccc(O)c(-c2ccc(O)c(CC=C)c2)c1 [HNK, honokiol]
- antiproliferative effect, boronate versus non-boronated analog [2]: nearly the same
- antiproliferative effect, boronate versus non-boronated analog [3]: nearly the same
- antiproliferative effect, boronate versus non-boronated analog (lung cancer (A549) cells): nearly the same

Compound: mitochondria-targeted honokiol [Mito-HNK]
- antiproliferative effect, boronate versus non-boronated analog [2]: nearly the same
- antiproliferative effect, boronate versus non-boronated analog [3]: nearly the same
- antiproliferative effect, boronate versus non-boronated analog (lung cancer (A549) cells): nearly the same
- oxidant formation from NOX2 (NOX2): inhibits oxidant formation
- metastasis of lung tumors to the brain (lung tumors): inhibited metastasis
- blood-brain-barrier permeability [4]: showed blood-brain-barrier permeability

Compound: C=CCc1ccc(O)c(-c2cc(CC=C)ccc2OCc2ccc(B3OC(C)(C)C(C)(C)O3)cc2)c1 [MGN-B, Magnolol boronate]
- antiproliferative effect, boronate versus non-boronated analog [2]: increased the potency
- effect on proliferation (melanoma (UACC-62) cells): decreasing the proliferation

Compound: mitochondria-targeted magnolol [Mito-MGN]
- antiproliferative potency of TPP+ conjugate compared with parent compounds MGN/MGN-B [2]: increased their antiproliferative potencies

Compound: mitochondria-targeted carboxy-proxyl [Mito-CP]
- cisplatin-induced renal toxicity (kidney): inhibited cisplatin-induced renal toxicity

Compound: Mitochondria-targeted honokiol boronate [Mito-HNK-B]
- antiproliferative effect, boronate versus non-boronated analog [2]: slightly more potent; also recorded: nearly the same
- antiproliferative effect, boronate versus non-boronated analog [3]: nearly the same
- antiproliferative effect, boronate versus non-boronated analog (lung cancer (A549) cells): nearly the same
- conversion of boronate to parent polyphenol ([5]; at higher concentrations of H2O2): increased
- conversion of boronate to parent polyphenol (HNK or Mito-HNK) ([5]; in the presence of H2O2 (500 μM), boronate 500 μM, phosphate buffer 0.1 M pH 7.4, room temperature): 37%
- oxidation to HNK / Mito-HNK [6]: rapidly oxidized
- hydrolysis of pinacolate ester to the corresponding boronic acid [7]: fast hydrolysis

Compound: NC(=O)c1c(COC(=O)c2ccccc2O)no[n+]1[O-] [AT38, 3-(aminocarbonyl) furoxan-4-yl) methyl salicylate]
- chemokine nitration [8]: mitigated chemokine nitration
- expression of arginase-1 and NOS-2 (or iNOS) in myeloid cells in the TME [8]: inhibited the expression
